This note sets out measurements from patent US8791158B2, “Methods of treating meibomian gland dysfunction” (GTX, Inc., priority 2010, dated 2014).

Series [1] relates to acute orchiectomized (ORX) rabbit model. Kind of series: Oil-Red-O lipid staining score of Meibomian gland (eyelid) sections, Example 4. The class given is in vivo. The following applies: ORX rabbits, topical 2.5 mg/kg; scale 0-4 by % cells stained; sham 3.75, ORX vehicle 3.2. The method, then: At the end of the study, the animals were euthanatized. The left harderian and Meibomian glands were collected for lipid analysis and snap frozen using an ethanol:dry ice bath. Samples were stored at −80° C. until shipment for analysis. The right eyelids were embedded in OCT medium and shipped to Paragon Biosciences (Washington D.C.) for histology and Oil-red-O quantification of lipids. Images of three separate fields were taken from each eyelid at random and the amount of cells staining red in each field was scored using commercially available software. A scoring scheme was adopted with a scale of 0-4 to evaluate the staining intensities with 0=<1% cells stained, 1+ for 2-5% of cells stained, 2+=6-10% stain, 3+=11-20% staining, 4+ for >21% cells stained.
Oil-Red-O is a lipophilic dye that is commonly used to stain lipid containing cells in histological sections. The amount of Oil-Red-O stain in each section is proportional to the number of cells synthesizing or storing lipid. A relative scoring system was adopted to evaluate the differences in lipid content of the Meibomian gland sections from treated and untreated animals in the study. […] Upon treatment with Compound 2, the lipid staining was seen to increase to that of the intact animals (score=3.8).

The nature of series [2]: Pharmacokinetic analysis of rabbit plasma after topical dosing, Example 5. The following applies: for Amount of drug absorbed into systemic circulation at lower doses compared to exposure at 2.5 mg/kg: lower topical doses vs 2.5 mg/kg (Table 6); for AUC: rabbit, plasma, topical or ocular, day 11, read-out: Systemic AUC. The class given is in vivo. How it is done:
Immediately after recovery from anesthesia, the animals were dosed with the appropriate test articles as indicated above. Drug dosing was performed once daily for 14 d. Blood samples were collected on day 11 of dosing at 0, 30, 60, 120, 240 and 1440 minutes post administration and to plasma separated for LCMS analysis of parent drug concentrations. Tears were collected using Schirmer tear strips (Alcon, Tex.) on day 0 before surgery and 24 hours after the last administration of drug (day 15). The tears were stored at −80° C. until shipment for lipid analysis. Lipids were hydrolyzed, extracted from the Schirmer strips, derivatized, and subjected to GC-FID to evaluate the lipid composition. The samples were evaluated for the presence of 28 saturated and unsaturated fatty acids that included methyl caprate (C10:0), methyl laurate (C12:0), methyl 11-dodecenoate (C12:1), methyl myri state (C14:0), methyl myristoleate (C14:1), methyl palmitate (C16:0), methyl palmitoleate (C16:1), methyl stearate (C18:0), methyl oleate (C18:1), methyl vaccenate (C18:1), methyl linoleate (C18:2), methyl gamma linoleate (C18:3), methyl linoleate (C18:3), methyl arachidate (C20:0), methyl 11-eicosenoate (C20:1), methyl 11,14 eicosadinoate (C20:2), methyl 8,11,14 eicosatrienoate (C20:3), methyl eicosapentaenoate (C20:5), methyl behenate (C22:0), methyl erucate (C22:1), methyl 13,16 docosaenoate (C22:2), methyl docosatetraenoate (C22:4), methyl docosapentaenoate (C22:5), methyl docosahexaenoate (C22:6), methyl lignocerate and (C24:0), methyl nervonate (C24:1). Area under the curve for each individual peak was determined using the GC ChemStation software. To normalize for the tear content, the lipid composition was expressed as a ratio of the lipid that was most affected by castration (palmitate) to one which remained relatively constant (stearate).
Plasma samples collected after dosing were analyzed using an LCMS/MS method. Briefly, plasma samples were prepared by protein precipitation extraction. (S)—N-(4-Cyano-3-(trifluoromethyl)phenyl)-3-(4-chlorophenoxy)-2-hydroxy-2-methylpropanamide was used as internal standard. The analysis of Compound 1 and Compound 2 was performed using an LC-MS/MS system consisting of an Agilent 1100 HPLC with an MDS/Sciex 4000 Q-Trap™ mass spectrometer. The separation was achieved using a C18 analytical column (Alltima™, 2.1×100 mm, 3 μm) protected by a C18 guard column (SecurityGuard™ 4.0×2.0 mm ID, Phenomenex). Mobile phase consisted of 60% acetonitrile, 40% water and 0.1% formic acid. Mobile phase was delivered at a flow rate of 0.3 mL/min Multiple reaction monitoring (MRM) scans were performed using curtain gas and a source temperature of 500° C. Molecular ions were formed using an ion spray voltage of −4500 V. Product ions were formed in nitrogen gas at a declustering potential of −55 V (Compound 1), −64 V (Compound 2), and −78 V (Internal standard) and collision energy of −24.0 V (Compound 1, m/z 388.0→117.9), −26.0 V (Compound 2, m/z 406.1→135.9), and −22.4 V (Internal standard, m/z 396.9→241.0). The plasma concentration—time data were analyzed by non-compartmental methods using WinNonlin (Version 3.1, Pharsight Corporation, Mountain View, Calif., USA). The area under the plasma concentration—time curve from time zero to infinity (AUC) was calculated by the trapezoidal rule with extrapolation to time infinity.
Systemic exposures after topical administration of the blood was determined in peripheral blood samples obtained at 30, 60, […], 240 and 1440 minutes after drug administration on day 11 of the study.

Like-named read-outs stand apart in the source and are kept apart here.

Turning to `C[C@](O)(COc1ccc(C#N)cc1)C(=O)Nc1ccc(C#N)c(C(F)(F)F)c1` [Compound 1, (S)—N-(4-Cyano-3-(trifluoromethyl)phenyl)-3-(4-cyanophenoxy)-2-hydroxy-2-methylpropanamide], the Oil-Red-O score in series [1] is listed as 3.4. The “Amount of drug absorbed into systemic circulation at lower doses compared to exposure at 2.5 mg/kg” value in series [2] was “⅛^th”. For the same molecule, the AUC in series [2] (0.625 mg/kg, topical 0.625 mpk) came out at 2.87 µM·h; in series [2] (1.25 mg/kg, topical 1.25 mpk) it was 3.99 µM·h.

`C[C@](O)(COc1ccc(C#N)c(F)c1)C(=O)Nc1ccc(C#N)c(C(F)(F)F)c1` [Compound 2, (S)—N-(4-cyano-3-(trifluoromethyl)phenyl)-3-(4-cyano-3-fluorophenoxy)-2-hydroxy-2-methylpropanamide] returned an Oil-Red-O score in series [1] of 3.8. The “Amount of drug absorbed into systemic circulation at lower doses compared to exposure at 2.5 mg/kg” value in series [2] is “¼^th”. The AUC turned out to be 3.2 µM·h in series [2] (0.625 mg/kg, topical 0.625 mpk) and 6.92 µM·h in series [2] (1.25 mg/kg, topical 1.25 mpk).

As a reminder, the AUC is concentration integrated over time.
